# Assay results as given in patent US6329389A, “Amine compounds, their production and use” (Takeda Chemical Industries, Ltd., priority 1998, dated 2001).
# Counter-ions that a name gives are not always drawn.
# Experiments:
# [1] = biological target: T1, human somatostatin receptor protein subtype 2 (SSTR2) (Homo sapiens, UniProt P30874); assay: Binding inhibition of 125I-somatostatin-14, IC50, SSTR2 membrane fraction; settings: 125I-somatostatin-14, CHO cell membrane fraction, 25° C., 60 minutes
# T1 construct: expressed in transfected cells; host or cells: CHO (dhfr-) cells, strain SSTR2-HS5-9
# T1 sequence (P30874 whole entry): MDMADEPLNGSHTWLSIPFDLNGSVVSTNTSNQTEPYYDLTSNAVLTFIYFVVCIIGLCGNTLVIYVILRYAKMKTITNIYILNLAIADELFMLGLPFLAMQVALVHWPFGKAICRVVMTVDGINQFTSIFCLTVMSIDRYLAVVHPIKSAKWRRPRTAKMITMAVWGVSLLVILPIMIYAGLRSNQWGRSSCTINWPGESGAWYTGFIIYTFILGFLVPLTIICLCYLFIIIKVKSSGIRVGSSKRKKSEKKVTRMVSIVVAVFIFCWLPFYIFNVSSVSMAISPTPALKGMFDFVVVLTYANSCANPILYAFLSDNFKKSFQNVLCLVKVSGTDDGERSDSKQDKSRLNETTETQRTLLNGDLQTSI
# [2] = biological target: T2, human somatostatin receptor protein subtype 3 (SSTR3) (Homo sapiens, UniProt P32745); assay: Binding inhibition of 125I-somatostatin-14, IC50, SSTR3 membrane fraction; settings: 125I-somatostatin-14, CHO cell membrane fraction, 25° C., 60 minutes
# T2 construct: expressed in transfected cells; host or cells: CHO (dhfr-) cells, strain SSTR3-15-19
# T2 sequence (P32745 whole entry): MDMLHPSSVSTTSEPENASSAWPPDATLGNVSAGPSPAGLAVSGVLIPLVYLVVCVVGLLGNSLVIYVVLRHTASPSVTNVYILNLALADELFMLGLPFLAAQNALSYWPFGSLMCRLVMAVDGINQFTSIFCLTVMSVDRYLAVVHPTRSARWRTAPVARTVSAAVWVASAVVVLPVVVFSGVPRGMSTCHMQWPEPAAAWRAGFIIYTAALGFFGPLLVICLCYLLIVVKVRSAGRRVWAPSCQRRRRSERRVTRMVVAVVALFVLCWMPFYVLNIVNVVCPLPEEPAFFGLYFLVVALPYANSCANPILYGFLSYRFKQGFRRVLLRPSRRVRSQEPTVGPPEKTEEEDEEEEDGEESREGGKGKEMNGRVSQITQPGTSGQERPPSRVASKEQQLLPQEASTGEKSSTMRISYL
# [3] = biological target: T3, rat somatostatin receptor protein subtype 4 (rSSTR4) (Rattus norvegicus, UniProt P30937); assay: Binding inhibition of 125I-somatostatin-14, IC50, rat SSTR4 membrane fraction; settings: 125I-somatostatin-14, rat SSTR4 CHO cell membrane fraction, 25° C., 60 minutes
# T3 construct: expressed in transfected cells; host or cells: CHO (dhfr-) cells, strain rSSTR4-20-25
# T3 sequence (P30937 whole entry): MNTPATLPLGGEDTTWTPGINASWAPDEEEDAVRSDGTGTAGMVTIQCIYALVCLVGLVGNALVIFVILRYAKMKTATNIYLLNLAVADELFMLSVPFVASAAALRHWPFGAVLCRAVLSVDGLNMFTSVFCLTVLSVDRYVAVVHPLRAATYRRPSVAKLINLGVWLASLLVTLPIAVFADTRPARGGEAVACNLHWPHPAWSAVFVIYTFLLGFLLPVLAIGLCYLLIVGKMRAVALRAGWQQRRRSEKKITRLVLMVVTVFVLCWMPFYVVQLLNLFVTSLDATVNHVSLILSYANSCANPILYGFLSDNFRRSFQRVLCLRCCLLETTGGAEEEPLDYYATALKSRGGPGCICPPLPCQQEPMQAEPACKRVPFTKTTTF
# rat astrocyte = assay: Inhibitory effect on forskolin-stimulated accumulation of cAMP in rat astrocyte; assay type: cell-based
# Experimental: Inhibitory effect on forskolin-stimulated accumulation of cAMP in rat astrocyte
# For measurement of the accumulated intracellular adenosine 3',5'-monophosphate (cAMP), newborn rat astrocytes prepared in accordance with the method of Mc carthy, K. D. et al. [Cell Biology, 85, 890-920, 1980] were proliferated in 24-well plate until they were confluent. Said cells were washed twice with 1 ml of Medium A [Dulbecco's Modified Eagle Medium (DMEM), 20 mM 2-[4-(2-hydroxyethyl)-1-piperazinyl]ethanesulfonic acid (HEPES) (pH 7.5), 0.2% bovine serum albumin and 0.2 mM 3-isobutyl-1-methylxanthine (IBMX)]. The medium A was placed in wells each in a quantity of 400 μl and incubated at 37° C. for an hour. […] The cells were washed twice with 1 ml of Medium A. 500 μl of Medium A and 100 μl of a 20% aqueous perchloric acid solution were placed in each well and left standing for20 minutes at 4° C. to lyse the cells. The lyzate was placed in an Eppendorf's tube and centrifuged (15.000 rpm, 10 minutes). The supernatant was placed in another Eppendorf's tube in quantity of 500 μl and neutralized with 60 mM of a HEPES aqueous solution containing 1.5 M of potassium chloride. The content of cAMP in this extract was determined by the Amersham kit (cAMP EIA system).
# [4] = biological target: human somatostatin receptor protein subtype 4 (hSSTR4); assay: Binding inhibition of 125I-somatostatin-14, IC50, SSTR4 membrane fraction; settings: 125I-somatostatin-14, human SSTR4 CHO cell membrane fraction, 25° C., 60 minutes
compound,measurement,setting,value
"CN(C)CC1Cc2ccccc2N(C(=O)[C@@H](Cc2c[nH]c3ccccc23)NC(=O)N2CCN(c3ccccc3)CC2)C1 (stereo partly drawn) [Example 88, 3-(R,S)-(N,N-Dimethylamino)methyl-1-[3-(indol-3-yl)-2-[(R)-(4-phenylpiperazin-1-yl)]carbonylaminolpropanoyl]-1,2,3,4-tetrahydroquinoline]",IC50,[1],9 nM
same,IC50,[2],0.8 nM
"O=C(CCc1nc(-c2cc3ccccc3o2)no1)N1CC(CN2CCCC2)Cc2ccccc21 (stereo not drawn) [Example 56, 1-[3-(3-(2-Benzofuranyl)-1,2,4-oxadiazol-5-yl]propanoyl]-3-(pirrolidin-1-yl)methyl-1,2,3,4-tetrahydroquinoline oxalate]",IC50,[3],10 nM
same,inhibition at 0.01 µM,"rat astrocyte; Astrocyte, compound 10 nM, forskolin 10 μM, rat astrocytes, 37° C., an hour, read-out: inhibition of the intracellular accumulation of cAMP at the time of stimulation by forskolin",43%
same,agonistic effect on the rat somatostatin receptor,rat astrocyte; conclusion from cAMP test in rat astrocytes,has an agonistic effect
same,IC50,[4],7 nM
"Somatostatin-14: Somatostatin-14, the reference peptide in the rat astrocyte cAMP test [reference compound]",inhibition of the intracellular accumulation of cAMP at the time of stimulation by forskolin,"rat astrocyte; compound 10 nM, forskolin 10 μM, rat astrocytes, 37° C., an hour",83%
"CN(C)CC1Cc2ccccc2N(C(=O)[C@@H](Cc2c[nH]c3ccccc23)NC(=O)N2CCC(n3c(=O)[nH]c4ccccc43)CC2)C1 (stereo partly drawn) [Example 89, 3-(R,S)-(N,N-Dimethylamino)methyl-1-[3-(indol-3-yl)-2-[(R)-4-(2-oxo-2,3-dihydro-1H-benzimidazol-1-yl]piperidinocarbonylamino]propanoyl]-1,2,3,4-tetrahydroquinoline]",IC50,[1],3 nM
same,IC50,[2],2 nM
